Reference: US20110207729A1, “BICYCLIC ACYLGUANIDINE DERIVATIVE” (ASTELLAS PHARMA INC., priority 2007, published 2011)
Structures can show the parent of a compound that is named as a salt.

Molecular target: T1, human 5-HT5A receptor (Homo sapiens, UniProt P47898)
T1 construct: expressed in transfected cells; membrane preparation
Test: Test on a human 5-HT5A receptor binding inhibition ([3H]5-CT)
Details: membrane from HEK293 cells expressing human 5-HT5A receptor; Ki calculated from IC50 and Kd 4.95 nM
Experimental: Acquisition of HEK293 cells for forced expressions of a human 5-HT5A receptor
The ORF (open reading frame; protein coding region) of a human 5-HT5A receptor (Genbank AF498985) was cloned from a human hippocampus cDNA library, and then inserted into a pCR2.1 vector (Invitrogen), and Escherichia coli containing the plasmid was cultured in a large amount. Next, the full-length cDNA sequence of the human 5-HT5A receptor was analyzed, and recombined into a pcDNA3.1 vector (Invitrogen) as an expression vector and cultured in a large amount. HEK293 established cells (ATCC) derived from the human fetal kidney were seeded, the expression plasmid (1 μg) obtained above were added thereto with LIPOFECTAMINE 2000 (Invitrogen; 2 μl), the gene was transfected into HEK293 cells, and the expression cells were screened with a drug-resistant marker, Geneticin (G418 sulfate 500 μg/ml; Kanto Chemical Co., Inc.). Thus prepared recombinant cells which express the gene were cultured in a medium containing D-MEM (Dulbecco's modified eagle medium, Sigma), 10% FCS (Fetal calf serum: fetal bovine serum), 1% Pc./Sm (Penicillin/Streptomycin, Invitrogen), and 500 μg/ml G418 for 3 days. These experimental operations follow an manual for gene operation experiment and an instruction appended in a reagent, and the like, such as a known method (Sambrook, J. et al, Molecular Cloning—A Laboratory Manual”, Cold Spring Harabor laboratory, NY, 1989).
(1) Preparation of a Membrane from HEK293 Cells for Forced Expressions of a Human 5-HT5A Receptor
HEK293 cells for forced expressions of a human 5-HT5A receptor were cultured in a F500 plate, and scraped with a scraper. After centrifugation, a precipitate was collected, and an incubation buffer (50 mM Tris (HCl) (pH 7.4), 10 mM MgSO4, and 0.5 mM EDTA (ethylenediamine tetraacetic acid)) were added thereto. After homogenization, it was further centrifuged, and the precipitate was added with the incubation buffer, followed by thoroughly suspending. This operation was repeated, and a protein concentration was measured, thereby completing the preparation of a membrane.
(2) Test on a Human 5-HT5A Receptor Binding Inhibition
A solution of a compound to be tested and 100 μM 5-CT (5-carboxamidetriptamine) in DMSO was added to a 96-well plate at 2 μl/well, and suspended in an incubation buffer, and a membrane from HEK293 cells for forced expressions of a human 5-HT5A receptor prepared at 200 μg/ml was added at 100 μl/well. After incubation at room temperature for 15 minutes, a [^3H]5-CT solution (2 nM [^3H]5-CT, incubation buffer) was added thereto at 100 μl/well.
Separately, 100 μl of the solution was distributed into a liquid scintillation vial, and 2 ml of Aquasol II (registered trademark) was added thereto, followed by stirring. Then, a radioactivity was measured by a liquid scintillation counter. It was incubated at 37° C. for 60 minutes. The reaction mixture was sucked into 96-well GF/C filter plate that had been pre-treated with 0.2% polyethyleneimine, and washed six times with an ice-cooled, 50 mM Tris (pH 7.5) buffer. The GF/C filter plate was dried.
Microscint TMPS (registered trademark) was added thereto at 40 μl/well. A radioactivity remaining on the GF/C filter plate was measured by a top counter.
The [^3H]5-CT binding inhibiting activity by the compound to be tested in each experiment was determined as an IC50 value with a radioactivity upon addition of DMSO alone being 0% inhibition, and a radioactivity upon addition of 1 μM 5-CT being 100% inhibition. Separately, a Ki value was calculated from the Kd value of the [^3H]5-CT determined from Scatchard analysis, by the following equation.
Ki=IC50(1+Concentration of ligands added/Kd(4.95 nM))

T1 sequence (P47898 whole entry): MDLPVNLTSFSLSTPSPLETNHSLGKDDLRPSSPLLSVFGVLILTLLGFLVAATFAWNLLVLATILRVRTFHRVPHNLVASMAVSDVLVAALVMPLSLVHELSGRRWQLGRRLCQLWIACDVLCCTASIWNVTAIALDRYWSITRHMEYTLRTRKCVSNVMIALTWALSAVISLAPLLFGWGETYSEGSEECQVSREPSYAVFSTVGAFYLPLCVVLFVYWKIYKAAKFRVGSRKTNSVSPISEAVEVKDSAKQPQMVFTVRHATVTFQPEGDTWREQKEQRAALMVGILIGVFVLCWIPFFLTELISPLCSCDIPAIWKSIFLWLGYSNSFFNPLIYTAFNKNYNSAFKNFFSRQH

| Ki [nM] | Structure (SMILES) |
| --- | --- |
| 30 to 300 | COc1ccccc1C1=CC(C)(C)Oc2ccc(C(=O)N=C(N)N)cc21 [Example 1-01, N-(diaminomethylene)-4-(2-methoxyphenyl)-2,2-dimethyl-2H-chromene-6-carboxamide hydrochloride] |
| 3 to 30 | COCCN/C(N)=N/C(=O)c1ccc2c(c1)C(c1c(F)cccc1F)=CCO2 [Example 1-03, N-{1-amino[(2-methoxyethyl)amino]methylene}-4-(2,6-difluorophenyl)-2H-chromene-6-carboxamide hydrochloride] |
| 30 to 300 | CC1(C)C=C(c2ccccc2)c2cc(C(=O)N=C(N)N)ccc2O1 [Example 1-04] |
| 0.97 | NC(N)=NC(=O)c1ccc2c(c1)C(c1ccccc1)=C(F)CO2 [Example 1-14] |
| 3 to 30 | NC(N)=NC(=O)c1ccc2c(c1)C(c1ccccc1C(F)(F)F)=CCO2 [Example 1-15] |
| 3 to 30 | N#Cc1ccccc1C1=CCOc2ccc(C(=O)N=C(N)N)cc21 [Example 1-21] |
| 0.3 to 3 | NC(N)=NC(=O)c1ccc2c(c1)C(c1ccccc1O)=CCO2 [Example 1-22] |
| 3 to 30 | NC(N)=NC(=O)c1ccc2c(c1)C(c1cc(F)cc(F)c1)=CCO2 [Example 1-46] |
| 3 to 30 | N#Cc1cc(F)ccc1C1=CCOc2ccc(C(=O)N=C(N)N)cc21 [Example 1-48] |
| 30 to 300 | N#Cc1cc(C2=CCOc3ccc(C(=O)N=C(N)N)cc32)ccc1F [Example 1-49] |
| 3 to 30 | COc1ccc(F)cc1C1=CCOc2ccc(C(=O)N=C(N)N)cc21 [Example 1-50] |
| 0.3 to 3 | NC(N)=NC(=O)c1ccc2c(c1)C(c1ccc(Cl)cc1Cl)=CCO2 [Example 1-51] |
| 3 to 30 | NC(N)=NC(=O)c1ccc2c(c1)C(c1cccc(C(F)(F)F)c1)=CCO2 [Example 1-52] |
| 3 to 30 | NC(N)=NC(=O)c1ccc2c(c1)C(c1cc(F)c(F)cc1F)=CCO2 [Example 1-53] |
| 0.3 to 3 | NC(N)=NC(=O)c1ccc2c(c1)C(c1ccc(Cl)cc1F)=CCO2 [Example 1-54] |
| 0.3 to 3 | NC(N)=NC(=O)c1ccc2c(c1)C(c1ccc(F)cc1Cl)=CCO2 [Example 1-55] |
| 3 to 30 | NC(N)=NC(=O)c1ccc2c(c1)C(c1cc(C(F)(F)F)ccc1F)=CCO2 [Example 1-65] |
| 30 to 300 | Cn1cc(C2=CCOc3ccc(C(=O)N=C(N)N)cc32)cn1 [Example 1-66] |
| 0.3 to 3 | CC1=C(c2c(F)cc(F)cc2F)c2cc(C(=O)N=C(N)N)ccc2OC1 [Example 1-67] |
| 0.3 to 3 | CC1C=C(c2c(F)cc(F)cc2F)c2cc(C(=O)N=C(N)N)ccc2O1 (stereo not shown) [Example 1-71] |
| 3 to 30 | CC1C=C(c2ccc(C#N)cc2)c2cc(C(=O)N=C(N)N)ccc2O1 (stereo not shown) [Example 1-72] |
| 3 to 30 | N/C(=N\C(=O)c1ccc2c(c1)C(c1c(F)cccc1F)=CCO2)NCC1CC1 [Example 1-76] |

| Ki [nM] | Structure (SMILES) |
| --- | --- |
| 3 to 30 | COc1cc(F)c(F)cc1C1=CCOc2ccc(C(=O)N=C(N)N)cc21 [Example 1-79] |
| 3 to 30 | NC(N)=NC(=O)c1ccc2c(c1)C(c1ccc(F)c(Cl)c1)=CCO2 [Example 1-80] |
| 0.3 to 3 | NC(N)=NC(=O)c1ccc2c(c1)C(c1cccc(Cl)c1F)=CCO2 [Example 1-81] |
| 0.3 to 3 | Cc1ccc(Cl)c(C2=CCOc3ccc(C(=O)N=C(N)N)cc32)c1F [Example 1-82] |
| 30 to 300 | NC(N)=NC(=O)c1ccc2c(c1)C(c1ccc(C(F)(F)F)cc1C(F)(F)F)=CCO2 [Example 1-83] |
| 3 to 30 | NC(N)=NC(=O)c1cc(F)c2c(c1)C(c1c(F)cc(F)cc1F)=CCO2 [Example 1-85] |
| 3 to 30 | COc1ccccc1C1=CCOc2c(F)cc(C(=O)N=C(N)N)cc21 [Example 1-86] |
| 30 to 300 | N#Cc1ccc(C2=CCOc3c(F)cc(C(=O)N=C(N)N)cc32)cc1 [Example 1-87] |
| 0.3 to 3 | Cc1ccc(C2=CCOc3ccc(C(=O)N=C(N)N)cc32)c(Cl)c1 [Example 1-91] |
| 0.3 to 3 | Cc1cc(Cl)ccc1C1=CCOc2ccc(C(=O)N=C(N)N)cc21 [Example 1-92] |
| 0.3 to 3 | NC(N)=NC(=O)c1ccc2c(c1)C(c1c(F)cccc1Cl)=CCO2 [Example 1-96] |
| 0.3 to 3 | NC(N)=NC(=O)c1ccc2c(c1)C(c1cccc(F)c1Cl)=CCO2 [Example 1-102] |
| 0.3 to 3 | NC(N)=NC(=O)c1ccc2c(c1)C(c1cc(F)ccc1Cl)=CCO2 [Example 1-103] |
| 30 to 300 | NC(N)=NC(=O)c1ccc2oc(=O)cc(-c3c(F)cc(F)cc3F)c2c1 [Example 1-104] |
| 3 to 30 | CC1(C)C=C(c2ccc(F)cc2F)c2cc(C(=O)N=C(N)N)ccc2O1 [Example 1-105] |
| 3 to 30 | CC1(C)C=C(c2c(F)cccc2F)c2cc(C(=O)N=C(N)N)ccc2O1 [Example 1-109] |
| 30 to 300 | CC1(C)C=C(c2ccc(F)cc2)c2cc(C(=O)N=C(N)N)ccc2O1 [Example 1-110] |
| 0.3 to 3 | COc1cc2c(cc1C(=O)N=C(N)N)C(c1c(F)cc(F)cc1F)=CCO2 [Example 1-118] |
| 30 to 300 | CC1(C)C=C(c2ccc(F)c(F)c2F)c2cc(C(=O)N=C(N)N)ccc2O1 [Example 1-119] |
| 30 to 300 | CC1(C)C=C(c2cc(F)c(F)cc2F)c2cc(C(=O)N=C(N)N)ccc2O1 [Example 1-120] |
| 3 to 30 | NC(N)=NC(=O)c1ccc2c(c1)C(c1c(F)cc(F)cc1F)=CC1(CCCC1)O2 [Example 1-121] |
| 3 to 30 | CC1C=C(c2c(F)cccc2F)c2cc(C(=O)N=C(N)N)ccc2O1 (stereo not shown) [Example 1-126] |

| Ki [nM] | Structure (SMILES) |
| --- | --- |
| 30 to 300 | CC1C=C(c2cccnc2Cl)c2cc(C(=O)N=C(N)N)ccc2O1 (stereo not shown) [Example 1-127] |
| 30 to 300 | CC1C=C(c2cccnc2)c2cc(C(=O)N=C(N)N)ccc2O1 (stereo not shown) [Example 1-128] |
| 30 to 300 | CC1C=C(c2ccncc2)c2cc(C(=O)N=C(N)N)ccc2O1 (stereo not shown) [Example 1-133] |
| 30 to 300 | CC1C=C(c2cccnc2F)c2cc(C(=O)N=C(N)N)ccc2O1 (stereo not shown) [Example 1-134] |
| 30 to 300 | CC1C=C(c2ccc(F)c(F)c2)c2cc(C(=O)N=C(N)N)ccc2O1 (stereo not shown) [Example 1-146] |
| 30 to 300 | CC1C=C(c2ccc(Cl)nc2Cl)c2cc(C(=O)N=C(N)N)ccc2O1 (stereo not shown) [Example 1-147] |
| 30 to 300 | COc1cccc(C#N)c1C1=CC(C)Oc2ccc(C(=O)N=C(N)N)cc21 (stereo not shown) [Example 1-165] |
| 3 to 30 | CC1C=C(c2cccs2)c2cc(C(=O)N=C(N)N)ccc2O1 (stereo not shown) [Example 1-166] |
| 3 to 30 | CC1C=C(c2ccsc2)c2cc(C(=O)N=C(N)N)ccc2O1 (stereo not shown) [Example 1-167] |
| 3 to 30 | NC(N)=NC(=O)c1ccc2c(c1)C(c1ccoc1)=CCC2 [Example 2-01, N-(diaminomethylene)-8-(3-furyl)-5,6-dihydronaphthalene-2-carboxamide methane sulfonate] |
| 3 to 30 | COc1cccc(C2=CCCc3ccc(C(=O)N=C(N)N)cc32)c1 [Example 2-05] |
| 30 to 300 | NC(N)=NC(=O)c1ccc2c(c1)C(c1ccc(Oc3ccccc3)cc1)=CCC2 [Example 2-07] |
| 3 to 30 | NC(N)=NC(=O)c1ccc2c(c1)C(c1cccc(F)c1)=CCC2 [Example 2-08] |
| 0.3 to 3 | NC(N)=NC(=O)c1ccc2c(c1)C(c1ccccc1F)=CCC2 [Example 2-09] |
| 3 to 30 | NC(N)=NC(=O)c1ccc2c(c1)C(c1cccc(Cl)c1)=CCC2 [Example 2-10] |
| 0.3 to 3 | NC(N)=NC(=O)c1ccc2c(c1)C(c1ccsc1)=CCC2 [Example 2-19] |
| 3 to 30 | NC(N)=NC(=O)c1ccc2c(c1)C(c1ccco1)=CCC2 [Example 2-20] |
| 0.3 to 3 | NC(N)=NC(=O)c1ccc2c(c1)C(c1cccs1)=CCC2 [Example 2-21] |
| 0.3 to 3 | N#Cc1ccc(C2=CCCc3ccc(C(=O)N=C(N)N)cc32)cc1 [Example 2-25] |
| 30 to 300 | NC(=O)c1cccc(C2=CCCc3ccc(C(=O)N=C(N)N)cc32)c1 [Example 2-30] |
